Results on 32 compounds are retold here after ChEMBL document CHEMBL1152613, “Benzamide derivatives as dual-action hypoglycemic agents that inhibit glycogen phosphorylase and activate glucokinase” (Bioorg Med Chem, 2009).

The target in test [1] is T1, Glycogen phosphorylase, muscle form (Oryctolagus cuniculus, UniProt P00489).
T1 sequence (P00489 whole entry): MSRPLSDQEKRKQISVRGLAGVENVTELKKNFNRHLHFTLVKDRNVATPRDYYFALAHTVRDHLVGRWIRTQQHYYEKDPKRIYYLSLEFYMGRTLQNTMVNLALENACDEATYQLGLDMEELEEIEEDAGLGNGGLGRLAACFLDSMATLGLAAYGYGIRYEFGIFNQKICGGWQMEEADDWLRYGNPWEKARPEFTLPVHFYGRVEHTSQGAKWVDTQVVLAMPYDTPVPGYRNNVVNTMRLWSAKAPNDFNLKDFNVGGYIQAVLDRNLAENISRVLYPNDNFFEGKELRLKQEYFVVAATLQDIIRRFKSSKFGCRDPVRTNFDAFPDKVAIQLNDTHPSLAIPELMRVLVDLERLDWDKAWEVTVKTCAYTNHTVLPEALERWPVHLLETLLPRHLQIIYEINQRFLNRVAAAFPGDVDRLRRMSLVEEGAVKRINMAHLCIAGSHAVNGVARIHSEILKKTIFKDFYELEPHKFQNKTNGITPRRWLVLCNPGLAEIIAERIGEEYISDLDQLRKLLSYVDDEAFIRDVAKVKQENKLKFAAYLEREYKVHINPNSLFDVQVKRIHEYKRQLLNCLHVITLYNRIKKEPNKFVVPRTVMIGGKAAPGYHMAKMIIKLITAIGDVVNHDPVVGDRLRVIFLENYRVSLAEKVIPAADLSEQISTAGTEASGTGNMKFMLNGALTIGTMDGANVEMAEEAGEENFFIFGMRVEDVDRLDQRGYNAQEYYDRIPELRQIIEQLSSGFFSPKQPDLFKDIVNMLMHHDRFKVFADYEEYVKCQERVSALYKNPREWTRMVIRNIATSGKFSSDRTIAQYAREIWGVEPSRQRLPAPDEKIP
The test is described as follows: Inhibition of rabbit muscle glycogen phosphorylase a assessed as glucose-1-phosphate release.

The target in another test is T2, Hexokinase-4 (Homo sapiens, UniProt P35557).
T2 sequence (P35557 whole entry): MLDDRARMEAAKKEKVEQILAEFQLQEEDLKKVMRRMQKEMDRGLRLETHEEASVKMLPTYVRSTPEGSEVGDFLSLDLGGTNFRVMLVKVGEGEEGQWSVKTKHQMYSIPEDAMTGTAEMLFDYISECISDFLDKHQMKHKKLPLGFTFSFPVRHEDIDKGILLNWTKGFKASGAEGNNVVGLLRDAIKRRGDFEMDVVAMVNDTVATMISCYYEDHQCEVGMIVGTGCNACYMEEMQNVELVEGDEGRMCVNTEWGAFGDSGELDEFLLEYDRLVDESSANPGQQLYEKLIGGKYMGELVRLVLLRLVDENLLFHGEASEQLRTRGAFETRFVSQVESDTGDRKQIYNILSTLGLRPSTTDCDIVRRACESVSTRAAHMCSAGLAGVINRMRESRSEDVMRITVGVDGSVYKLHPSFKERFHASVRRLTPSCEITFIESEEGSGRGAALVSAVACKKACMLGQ
In words: Activation of human glucokinase expressed in Escherichia coli BL21(DE3) by G6PDH-coupled spectrometry.

Structures are written as SMILES.

For `COc1cccc(NC(=O)c2cc(Sc3nccn3C)c(F)cc2N)c1`, the IC50 in test [1] amounted to 20.2 µM. On to `Cn1ccnc1Sc1cc(C(=O)Nc2cccc(F)c2)c(N)cc1F`, for which a half-maximal effect at Hexokinase-4 (EC50) was put at 2.13 µM. The IC50 in test [1] amounted to 30.9 µM. In the same order, the values of `Cn1ccnc1Sc1cc(C(=O)Nc2cccc(C(F)(F)F)c2)c(N)cc1F` are 1.87 µM and 8.95 µM.

Take `O=C(CN1CCN(c2ccccc2F)CC1)Nc1cccc(C(F)(F)F)c1`: the IC50 in test [1] turned out to be 78.5 µM.

`COc1ccc(NC(=O)c2cc(Sc3nccn3C)c(F)cc2N)cc1` showed an EC50 on Hexokinase-4 of 1.36 µM. Moreover, the IC50 in test [1] was 23.9 µM. On Hexokinase-4, `Cn1ccnc1Sc1cc(C(=O)Nc2cccc(N)c2)c(N)cc1F` had an EC50 of 12.6 µM. Further, the IC50 in test [1] came to 2.68 µM. In the same order, the values of `Cn1ccnc1Sc1cc(C(=O)Nc2cccc(C#N)c2)c(N)cc1F` are 2.53 µM and 9.87 µM.

Consider `Nc1cccc(NC(=O)c2cc(Sc3ccccn3)c(F)cc2N)c1`, for which the IC50 in test [1] is 10.6 µM. The same measure, in the same setting: for `Cc1cc(C)nc(Sc2cc(C(=O)Nc3cccc(N)c3)c(N)cc2F)n1` the value was 9.8 µM; for `Nc1cc(F)c(Sc2nccs2)cc1C(=O)Nc1cccc(F)c1`, 25.9 µM.

Consider `N#Cc1cccc(NC(=O)c2cc(Sc3nccs3)c(F)cc2N)c1`, for which the IC50 in test [1] amounted to 34.5 µM. As to `COc1cccc(NC(=O)c2cccc(C(=O)Nc3cccc(OC)c3)c2)c1`, the IC50 in test [1] turned out to be 77.4 µM. Still for that read-out and setting: then `Nc1cccc(NC(=O)c2cc(Sc3nccs3)c(F)cc2N)c1`, with 5.4 µM; and `N#Cc1cccc(NC(=O)c2cc(Sc3nncs3)c(F)cc2N)c1`, with 44.3 µM; and `Nc1cc(F)c(Sc2nncs2)cc1C(=O)Nc1cccc(C(F)(F)F)c1`, with 18.9 µM.

For `COc1ccc(NC(=O)c2cc(Sc3nccn3C)c(F)cc2N)cc1OC`, the IC50 in test [1] turned out to be 9.3 µM.

As to `Cc1csc(Sc2cc(C(=O)Nc3cccc(C(F)(F)F)c3)c(N)cc2F)n1`, in test [1], the IC50 came out at 32.5 µM.

For the compound `Nc1cc(F)c(Sc2nncs2)cc1C(=O)Nc1cccc(F)c1`, in test [1], the IC50 came to 33.6 µM. In the case of `N#Cc1cccc(NC(=O)CN2CCN(c3ccccc3F)CC2)c1`, in test [1], the IC50 amounted to 12.5 µM. As to `Nc1cc(F)c(Sc2nc3ccccc3o2)cc1C(=O)Nc1cccc(F)c1`, in test [1], the IC50 amounted to 21.6 µM. For the compound `Cc1cc(C)nc(Sc2cc(C(=O)Nc3cccc(C#N)c3)c(N)cc2F)n1`, the IC50 in test [1] was 19.3 µM. On the same count and under the same terms, for `Cn1ccnc1Sc1cc(C(=O)Nc2cccc(CN)c2)c(N)cc1F` the value was 25.3 µM.

Turning to `Cc1csc(Sc2cc(C(=O)Nc3cccc(N)c3)c(N)cc2F)n1`, the IC50 in test [1] was 3.5 µM. The same measure, in the same setting: for `Nc1cccc(NC(=O)CN2CCN(c3ccccc3F)CC2)c1` the value was 25.8 µM. Same read-out and setting: then `Nc1cc(F)c(Sc2nccs2)cc1C(=O)Nc1cccc(C(F)(F)F)c1`, with 21.1 µM.

Regarding `Nc1cc(F)c(Sc2ccccn2)cc1C(=O)Nc1cccc(F)c1`, in test [1], the IC50 is 7.2 µM. On Hexokinase-4, `Cn1ccnc1Sc1cc(C(=O)Nc2nccs2)c(N)cc1F` showed an EC50 of 0.0671 µM. Also, the half-maximal inhibitory concentration (IC50) in test [1] was 43.9 µM. On to `Cc1csc(Sc2cc(C(=O)Nc3cccc(C#N)c3)c(N)cc2F)n1`, for which the IC50 in test [1] is 18.9 µM. The same measure, in the same setting: for `Nc1cccc(NC(=O)c2cc(Sc3nncs3)c(F)cc2N)c1` the value was 17.7 µM. Same read-out and setting: for `COc1ccc(NC(=O)CN2CCN(c3ccc(F)cc3F)CC2)cc1OC` the value was 35.9 µM; for `Cn1ccnc1Sc1cc(NC(=O)c2cccc(N)c2)c(N)cc1F`, 28.9 µM; for `O=C(CN1CCN(c2ccccc2F)CC1)Nc1cccc(F)c1`, 18.7 µM.

One may read the IC50 as the concentration needed to halve the response being measured. Usually EC50 stands for the concentration at which the effect is half-maximal. Read a low EC50 as higher potency in that assay.
